Target: Receptor tyrosine-protein kinase erbB-2 (Homo sapiens, UniProt P04626)
Experiment: HER2 Degradation Assay with BT-474 Cell Line
Description: HER2 has emerged as a key target for anticancer drugs due to its intrinsic involvement in the phosphatidylinositol-3-kinase-Akt/protein kinase B (PI3 K-Akt) and the mitogen-activated protein kinase (MAPK) pathways, both of which suppress apoptosis and promote tumor cell survival, gene transcription, angiogenesis, cellular proliferation, migration, mitosis, and differentiation. The degradation of HER2 is a measure of efficacy of anticancer therapeutics that target Hsp90. Accordingly, the SDC-TRAP molecules of the invention that comprise a binding moiety that binds Hsp90 were tested in the following HER2 degradation assay.BT-474 cells (human breast cancer cell line ATCC HTB-20) were obtained from ATCC and seeded into 12-well tissue culture plates at 0.2x106/1.8 mL/well. […] Each test compound was titrated in 4-fold dilutions from 5 μM to 78 nM with DMSO and 200 μL of the titration was added to each well of the cell plate. The DMSO final concentration was 0.2%. Cells were incubated overnight at 37° C. in 5% CO2.Media was decanted from the plate, cells were washed 1x in PBS. 400 μL trypsin (EDTA) per well was added, and the cells were incubated for 2 to 3 minutes. […] The cytometer readout was normalized and the potency of each compound was evaluated with IC50 calculated with XLfit software.

Sequence of Receptor tyrosine-protein kinase erbB-2 (P04626 whole entry): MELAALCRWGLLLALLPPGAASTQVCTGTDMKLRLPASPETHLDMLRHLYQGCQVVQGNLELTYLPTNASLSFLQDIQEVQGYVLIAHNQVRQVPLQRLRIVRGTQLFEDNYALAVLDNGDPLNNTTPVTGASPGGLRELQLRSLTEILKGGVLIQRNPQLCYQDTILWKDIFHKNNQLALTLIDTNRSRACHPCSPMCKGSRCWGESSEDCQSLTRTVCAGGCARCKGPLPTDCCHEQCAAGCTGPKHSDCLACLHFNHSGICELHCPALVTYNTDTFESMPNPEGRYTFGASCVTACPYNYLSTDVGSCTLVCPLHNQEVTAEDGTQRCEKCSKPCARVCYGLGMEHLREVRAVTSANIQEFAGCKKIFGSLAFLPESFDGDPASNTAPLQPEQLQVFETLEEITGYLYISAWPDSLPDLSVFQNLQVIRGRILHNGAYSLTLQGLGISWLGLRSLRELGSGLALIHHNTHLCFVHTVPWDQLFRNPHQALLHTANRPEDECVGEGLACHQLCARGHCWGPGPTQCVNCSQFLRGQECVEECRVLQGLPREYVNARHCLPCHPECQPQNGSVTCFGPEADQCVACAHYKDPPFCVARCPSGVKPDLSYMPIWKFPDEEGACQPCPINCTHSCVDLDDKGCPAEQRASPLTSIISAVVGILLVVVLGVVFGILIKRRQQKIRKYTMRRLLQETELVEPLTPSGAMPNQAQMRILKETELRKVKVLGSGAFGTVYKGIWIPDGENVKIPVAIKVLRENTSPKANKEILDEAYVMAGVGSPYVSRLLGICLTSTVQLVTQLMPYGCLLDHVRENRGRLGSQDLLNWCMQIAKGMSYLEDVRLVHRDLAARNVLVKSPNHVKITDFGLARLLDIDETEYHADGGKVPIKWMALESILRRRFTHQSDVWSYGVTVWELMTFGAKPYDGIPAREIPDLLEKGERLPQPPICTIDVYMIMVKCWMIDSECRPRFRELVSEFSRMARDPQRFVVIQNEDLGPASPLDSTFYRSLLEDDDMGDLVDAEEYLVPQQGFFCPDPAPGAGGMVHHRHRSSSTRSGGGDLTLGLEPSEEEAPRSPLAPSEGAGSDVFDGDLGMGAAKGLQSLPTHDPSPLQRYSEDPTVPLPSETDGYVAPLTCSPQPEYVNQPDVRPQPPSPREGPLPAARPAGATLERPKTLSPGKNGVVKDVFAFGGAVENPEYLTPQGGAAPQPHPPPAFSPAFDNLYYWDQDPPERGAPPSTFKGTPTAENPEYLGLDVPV

CC(C)C[C@H](NC(=O)[C@H](Cc1ccccc1)NC(=O)c1cnccn1)B1O[C@H]2C[C@H]3C[C@H](C3(C)C)[C@@]2(CC(=O)N2CCC(CCn3ccc4cc(N(C(=N)c5cc(C(C)C)c(O)cc5O)C(N)=O)ccc43)CC2)O1 [US10117944, Compound SDC-TRAP-0245]
IC50: 117 nM

Source: BindingDB's records for patent US10117944 (Madrigal Pharmaceuticals, 2018)
